Laboratory results from US20110086759A1, “CHEMICAL COMPOUNDS” (SYNGENTA CROP PROTECTION, INC., priority 2007, published 2011).

Tests used:
Assay type in all cases: in vivo
[1] = system: Ipomea hederaceae (IPOHE); test: Post-emergence biological efficacy, glasshouse pot test; conditions: Ipomoea hederacea, 312 h; post-emergence, 1,000 g/ha, evaluated after 13 days (100=total damage; 0=no damage); read-out: Percentage damage caused to weed species, IPOHE
How it was run: (§1)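 Scored 13 days after spraying on a 0 (no damage) to 100 (total damage) scale. Treatment was a post-emergence spray at 1000 or 250 g/ha, from acetone/water 50:50 plus 0.5% Tween 20, onto 8-day-old plants in soil pots. Growth at 24/16° C, 14 h photoperiod, 65% humidity, watered twice daily.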

[2] = system: Alopecurus myosuroides (ALOMY); test: as above; conditions: 312 h, post-emergence, 1,000 g/ha, evaluated after 13 days (100=total damage; 0=no damage), read-out: Percentage damage caused to weed species, ALOMY
How it was run: as §1

[3] = system: Echinochloa crus-galli (ECHCG); test: as above; conditions: 312 h, post-emergence, 1,000 g/ha, evaluated after 13 days (100=total damage; 0=no damage), read-out: Percentage damage caused to weed species, ECHCG
How it was run: as §1

Solanum nigrum (SOLNI) [4] = test: as above; conditions: 312 h, post-emergence, 1,000 g/ha, evaluated after 13 days (100=total damage; 0=no damage), read-out: Percentage damage caused to weed species, SOLNI
How it was run: as §1

[5] = system: Amaranthus retoflexus (AMARE); test: as above; conditions: Amaranthus retroflexus, 312 h; post-emergence, 1,000 g/ha, evaluated after 13 days (100=total damage; 0=no damage); read-out: Percentage damage caused to weed species, AMARE
How it was run: as §1

Setaria faberi (SETFA) [6] = test: as above; conditions: 312 h, post-emergence, 1,000 g/ha, evaluated after 13 days (100=total damage; 0=no damage), read-out: Percentage damage caused to weed species, SETFA
How it was run: as §1

[7] = system: Ipomea hederaceae (IPOHE); test: Pre-emergence biological efficacy, glasshouse pot test; conditions: Ipomoea hederacea, 312 h; pre-emergence, 1,000 g/ha, evaluated after 13 days (100=total damage; 0=no damage); read-out: Percentage damage IPOHE
How it was run: (§2)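 Scores on a 0–100 damage scale were taken 13 days after spraying. Application rate 1000 or 250 g/ha, one day after sowing, in acetone/water-based aqueous spray containing 0.5% Tween 20.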

[8] = system: Alopecurus myosuroides (ALOMY); test: as above; conditions: 312 h, pre-emergence, 1,000 g/ha, evaluated after 13 days (100=total damage; 0=no damage), read-out: Percentage damage ALOMY
How it was run: as §2

[9] = system: Echinochloa crus-galli (ECHCG); test: as above; conditions: 312 h, pre-emergence, 1,000 g/ha, evaluated after 13 days (100=total damage; 0=no damage), read-out: Percentage damage ECHCG
How it was run: as §2

Solanum nigrum (SOLNI) [10] = test: as above; conditions: 312 h, pre-emergence, 1,000 g/ha, evaluated after 13 days (100=total damage; 0=no damage), read-out: Percentage damage SOLNI
How it was run: as §2

[11] = system: Amaranthus retoflexus (AMARE); test: as above; conditions: Amaranthus retroflexus, 312 h; pre-emergence, 1,000 g/ha, evaluated after 13 days (100=total damage; 0=no damage); read-out: Percentage damage AMARE
How it was run: as §2

Setaria faberi (SETFA) [12] = test: as above; conditions: 312 h, pre-emergence, 1,000 g/ha, evaluated after 13 days (100=total damage; 0=no damage), read-out: Percentage damage SETFA
How it was run: as §2

| SMILES | pest or weed control at 1000 g/ha [1] | pest or weed control at 1000 g/ha [2] | pest or weed control at 1000 g/ha [3] | pest or weed control at 1000 g/ha (Solanum nigrum (SOLNI) [4]) | pest or weed control at 1000 g/ha [5] | pest or weed control at 1000 g/ha (Setaria faberi (SETFA) [6]) | pest or weed control at 1000 g/ha [7] | pest or weed control at 1000 g/ha [8] | pest or weed control at 1000 g/ha [9] | pest or weed control at 1000 g/ha (Solanum nigrum (SOLNI) [10]) | pest or weed control at 1000 g/ha [11] | pest or weed control at 1000 g/ha (Setaria faberi (SETFA) [12]) |
| --- | --- | --- | --- | --- | --- | --- | --- | --- | --- | --- | --- | --- |
| COC(=O)c1nc(C2CC2)nc(NC(C)Cc2c[nH]c3ccccc23)c1Cl (stereo not drawn) [Compound 4-231, 5-Chloro-2-cyclopropyl-4-[2-(indol-3-yl)-1-methyl-ethylamino]-6-methoxy-carbonylpyrimidine] | 60% | 10% | 10% | 70% | 90% | 30% | 70% | 0% | 0% | 10% | 30% | 0% |
| COC(=O)c1nc(C2CC2)nc(NCC(C)c2ccccc2)c1Cl (stereo not drawn) [Compound 4-232, 5-Chloro-2-cyclopropyl-6-methoxycarbonyl-4-[2-(phenyl)propyl-amino]-pyrimidine] | 100% | 20% | 30% | 70% | 100% | 50% | 50% | 10% | 30% | 80% | 90% | 30% |
| COC(=O)c1nc(C2CC2)nc(NCC(C)c2ccc(Cl)cc2)c1Cl (stereo not drawn) [Compound 4-233, 5-Chloro-4-[2-(4-chlorophenyl)propyl-amino]-2-cyclopropyl-6-methoxycarbonyl-pyrimidine] | 60% | 10% | 20% | 80% | 100% | 50% | 10% | 0% | 0% | 20% | 40% | 0% |
| COC(=O)c1nc(C2CC2)nc(NCC(F)c2ccccc2Br)c1Cl (stereo not drawn) [Compound 4-234, 4-[2-(2-Bromophenyl)-2-fluoro-ethylamino]-5-chloro-2-cyclopropyl-6-methoxycarbonyl-pyrimidine] | 60% | 0% | 20% | 70% | 90% | 30% | 0% | 0% | 0% | 0% | 10% | 0% |
| COC(=O)c1nc(C2CC2)nc(NCC(F)c2ccc(Br)cc2)c1Cl (stereo not drawn) [Compound 4-236, 4-[2-(4-Bromophenyl)-2-fluoro-ethylamino]-5-chloro-2-cyclopropyl-6-methoxycarbonyl-pyrimidine] | 60% | 0% | 0% | 70% | 100% | 40% | 0% | 0% | 0% | 60% | 0% | 0% |
| COC(=O)c1nc(C2CC2)nc(NCC(F)c2cccc(C(F)(F)F)c2)c1Cl (stereo not drawn) [Compound 4-237, 5-Chloro-2-cyclopropyl-4-[2-fluoro-2-(3-trifluoromethyl-phenyl)ethylamino]-6-methoxy-carbonylpyrimidine] | 60% | 0% | 30% | 70% | 100% | 40% | 10% | 0% | 0% | 0% | 30% | 0% |
